In patent US20120172228A1, “ALCOHOL ALKOXYLATES AS ADJUVANTS FOR AGROCHEMICAL FORMULATIONS” (SYNGENTA CROP PROTECTION, LLC, priority 2009, published 2012):

Columns and labels:
Type in all cases: in vivo
[1] = tested on: lolium perenne (LOLPE), alopecurius myosuirides (ALOMY), avena fatua (AVEFA); experiment: Adjuvant with herbicide pinoxaden, mean across three weed species (Example 22); conditions: pinoxaden 7.5, 11.25 or 15 g/ha; Sample 13 0.2%, TEHP 0.5%; 14 and 21 days
Experimental: In this example Sample 13 from Table 1 was compared to the oil adjuvant blend Turbocharge™. The herbicide fomesafen was applied to the weed species xanthium strumarium (XANST), setaria viridis (SETVI), abutilon theophrasti (ABUTH), and chenopodium album (CHEAL) at rates of 60 or 120 grams per hectare, using a laboratory track sprayer. Each experiment was replicated four times and the percentage damage to the weeds was assessed visually at time periods of 7, 14 and 21 days after application. Each adjuvant was applied at a rate of 0.5% of the volume of the spray water. Four effects were evaluated: pesticide rate (2 levels), adjuvant type (two levels), weed species (four levels) and days after application (three levels). A standard simple linear model was constructed to judge the significance of these effects. […] A model was fitted using multiple linear regression using the statistics package JMP (SAS group). The effect of each adjuvant was pulled out from the model and the least significant differences evaluated using a Student's t method. […]
(§1) In this example the response of the butylene oxide adjuvant 13 of Table 1 was measured at an application rate of 0.2% of the volume of the spray solution used. […] In each case the experiments were replicated four times and the percentage damage to the weeds was assessed visually at time periods of 14 and 21 days after application.

[2] = tested on: alopecurius myosuirides (ALOMY); experiment: Adjuvant with herbicide pinoxaden on ALOMY; conditions: 14 and 21 days
Experimental: (§2) In this example Sample 13 from Table 1 was compared to the oil adjuvant blend Turbocharge™. The herbicide fomesafen was applied to the weed species xanthium strumarium (XANST), setaria viridis (SETVI), abutilon theophrasti (ABUTH), and chenopodium album (CHEAL) at rates of 60 or 120 grams per hectare, using a laboratory track sprayer. Each experiment was replicated four times and the percentage damage to the weeds was assessed visually at time periods of 7, 14 and 21 days after application. Each adjuvant was applied at a rate of 0.5% of the volume of the spray water. Four effects were evaluated: pesticide rate (2 levels), adjuvant type (two levels), weed species (four levels) and days after application (three levels). […] The effect of each adjuvant was pulled out from the model and the least significant differences evaluated using a Student's t method. […]
as §1, with “responses” for “response”, “adjuvants 13, 17, 19, 21, 22 and 23 were” for “butylene oxide adjuvant 13 of Table 1 was”
In this example the response of butylene oxide sample 27 of Table 1 was measured at an application rate of 0.2% of the volume of the spray solution used. […]

[3] = tested on: lolium perenne (LOLPE), alopecurius myosuirides (ALOMY), setaria viridis (SETVI), avena fatua (AVEFA); experiment: Adjuvant with herbicide pinoxaden, track sprayer, mean across four weed species; conditions: pinoxaden 7.5 or 15 g/ha, 14 and 21 days
setaria viridis (SETVI) = experiment: Adjuvant with herbicide nicosulfuron on SETVI; conditions: nicosulfuron 30 or 60 g/ha; adjuvants 0.2% of spray water; 14 and 21 days after application
Experimental: as §2
(§3) In this example the butylene oxide adjuvant Sample 13 of Table 1 was compared to the commercial oil adjuvant blend Atplus™411F. […] Each experiment was replicated four times and the percentage damage to the weeds was assessed visually at time periods of 14 and 21 days after application. […]
(§4) In this example the responses of the butylene oxide adjuvants 13, 17, 19, 21, 22 and 23 of Table 1 were measured at an application rate of 0.2% of the volume of the spray solution used. […]

[4] = tested on: abutilon theophrasti (ABUTH); experiment: Adjuvant with herbicide nicosulfuron on ABUTH; conditions: nicosulfuron 30 or 60 g/ha; adjuvants 0.2% of spray water; 14 and 21 days after application
Experimental: as §2, §3, §4

CCCCC(CC)COP(=O)(OCC(CC)CCCC)OCC(CC)CCCC (stereo not shown) [TEHP, tris 2-ethylhexyl phosphate]
mean efficacy (percentage damage to the weeds), All weeds [1]: 59.91; A %
mean efficacy (percentage damage to the weeds), ALOMY ([2]; pinoxaden 7.5, 11.25 or 15 g/ha, Sample 13 0.2%, TEHP 0.5%): 43.33; A %
mean efficacy (percentage damage to the weeds), ALOMY ([2]; pinoxaden 7.5 or 15 g/ha, butylene oxide adjuvants 0.2%, TEHP 0.5% v/v): 68.75; AB %
Mean kill (%) ([3]; Sample 28 0.2%, TEHP 0.5%): 92.6%
mean efficacy (percentage damage to the weeds), All weeds ([3]; butylene oxide adjuvants 0.2%, TEHP 0.5% v/v): 75.63; A %
mean efficacy (percentage damage to the weeds), SETVI (setaria viridis (SETVI)): 77.08; A %
mean efficacy (percentage damage to the weeds), ABUTH [4]: 17.92; B %
